Test results: US20250034185A1 (priority 2021, published 2025)

System: plasma enzymes
Conditions: for P5P formed / relative P5P formed: Sprague Dawley, rat
Wherever P5P formed is given: test concentration or dose not given here.

Row | SMILES | P5P formed | relative P5P formed | stability in DMSO (stock solution)
1 | COC(=O)[C@H](C)NP(=O)(OCc1cnc(C)c(O)c1CO)Oc1ccccc1 (stereo partly drawn) [Compound 15vi, (2S)-Methyl 2-(((5-hydroxy-4-(hydroxymethyl)-6-methylpyridin-3-yl)methoxy)(phenoxy)phosphorylamino)propanoate] | 0 µM | 0.0% | –
2 | Cc1ncc(COP(=O)(N[C@@H](C)C(=O)OCC2CCCC2)Oc2ccccc2)c(CO)c1O (stereo partly drawn) [Compound 15vii, (2S)-Cyclopentylmethyl 2-(((5-hydroxy-4-(hydroxymethyl)-6-methylpyridin-3-yl)methoxy)(phenoxy)phosphorylamino)propanoate] | 0 µM | 0.0% | –
3 | Cc1ncc(COP(=O)(N[C@@H](C)C(=O)OC(C)C)Oc2cccc3ccccc23)c(CO)c1O (stereo partly drawn) [Compound 15x, (2S)-Isopropyl 2-(((5-hydroxy-4-(hydroxymethyl)-6-methylpyridin-3-yl)methoxy)(naphthalen-1-yloxy)phosphorylamino)propanoate] | 0 µM | 0.0% | –
4 | Cc1ncc(COP(=O)(N[C@@H](C)C(=O)OCc2ccccc2)Oc2ccccc2)c(CO)c1O (stereo partly drawn) [Compound 15xi, (2S)-Benzyl 2-(((5-hydroxy-4-(hydroxymethyl)-6-methylpyridin-3-yl)methoxy)(phenoxy)phosphorylamino)propanoate] | 1.1 µM | 10.5% | –
5 | Cc1ncc(COP(=O)(N[C@H](C(=O)OC(C)C)C2CCCC2)Oc2ccccc2)c(CO)c1O (stereo partly drawn) [Compound 15xii, (2S)-Isopropyl 2-cyclopentyl-2-(((5-hydroxy-4-(hydroxymethyl)-6-methylpyridin-3-yl)methoxy)(phenoxy)phosphorylamino)acetate] | 0.2 µM | 7.4% | –
6 | Cc1ncc(COP(=O)(N[C@@H](CC(C)C)C(=O)OC(C)C)Oc2ccccc2)c(CO)c1O (stereo partly drawn) [Compound 15xiii, (2S)-Isopropyl 2-(((5-hydroxy-4-(hydroxymethyl)-6-methylpyridin-3-yl)methoxy)(phenoxy)phosphorylamino)-4-methylpentanoate] | 0.8 µM | 15.7% | –
7 | Cc1ncc(COP(=O)(NC(CC(F)(F)F)C(=O)OC(C)C)Oc2ccccc2)c(CO)c1O (stereo not drawn) [Compound 15xiv, Isopropyl 4,4,4-trifluoro-2-(((5-hydroxy-4-(hydroxymethyl)-6-methylpyridin-3-yl)methoxy)(phenoxy)phosphorylamino)butanoate] | 0.1 µM | 2.6% | –
8 | [2H]c1c([2H])c([2H])c(OP(=O)(N[C@@H](C)C(=O)OC(C)C)OCc2cnc(C)c(O)c2CO)c([2H])c1[2H] (stereo partly drawn) [Compound 15xix] | 0.4 µM | 7.4% | –
9 | Cc1ncc(COP(=O)(N[C@@H](C)C(=O)OC(C)C)Oc2ccccc2)c(CO)c1OC(=O)c1ccccc1 (stereo partly drawn) [Compound 15xvii, (2S)-Isopropyl 2-(((5-benzoyloxy-4-(hydroxymethyl)-6-methylpyridin-3-yl)methoxy)(phenoxy)phosphorylamino)propanoate] | 0.3 µM | 8.3% | –
10 | [2H]C([2H])([2H])c1ncc(C([2H])([2H])OP(=O)(N[C@@H](C)C(=O)OC(C)C)Oc2ccccc2)c(CO)c1O (stereo partly drawn) [Compound 15xxxi] | 0.5 µM | 20.0% | –
11 | CCC(CC)COC(=O)[C@H](C)NP(=O)(OCc1cnc(C)c(O)c1CO)Oc1ccccc1 (stereo partly drawn) [Compound 15xxxiv] | 0 µM | 0.0% | –
12 | Cc1ncc(COP(=O)(N[C@@H](C)C(=O)OC(C)C)Oc2cccc3ccccc23)c(C=O)c1O (stereo partly drawn) [Compound 16iv, (2S)-Isopropyl 2-(((4-formyl-5-hydroxy-6-methylpyridin-3-yl)methoxy)(naphthalen-1-yloxy)phosphorylamino)propanoate] | 1.8 µM | 47.4% | –
13 | Cc1ncc(COP(=O)(N[C@@H](C)C(=O)OCc2ccccc2)Oc2ccccc2)c(C=O)c1O (stereo partly drawn) [Compound 16ix, (2S)-Benzyl 2-(((4-formyl-5-hydroxy-6-methylpyridin-3-yl)methoxy)(phenoxy)phosphorylamino)propanoate] | 10.3 µM | 98.1% | –
14 | Cc1ncc(COP(=O)(N[C@@H](C)C(=O)OCC2CCCC2)Oc2ccccc2)c(C=O)c1O (stereo partly drawn) [Compound 16x, (2S)-Cyclopentylmethyl 2-(((4-formyl-5-hydroxy-6-methylpyridin-3-yl)methoxy)(phenoxy)phosphorylamino)propanoate] | 1.95 µM | 121.9% | –
15 | Cc1ncc(COP(=O)(N[C@@H](C)C(=O)Oc2ccc(Cl)cc2)Oc2ccccc2)c(C=O)c1O (stereo partly drawn) [Compound 16xL, (2S)-4-Chlorophenyl 2-(((4-formyl-5-hydroxy-6-methylpyridin-3-yl)methoxy)(phenoxy)phosphorylamino)propanoate] | 3.6 µM | 171.4% | –
16 | Cc1ncc(COP(=O)(NC(CC(F)(F)F)C(=O)OC(C)C)Oc2ccccc2)c(C=O)c1O (stereo not drawn) [Compound 16xi, Isopropyl 4,4,4-trifluoro-2-(((4-formyl-5-hydroxy-6-methylpyridin-3-yl)methoxy)(phenoxy)phosphorylamino)butanoate] | 0.6 µM | 15.8% | –

Row | SMILES | P5P formed | relative P5P formed | stability in DMSO (stock solution)
17 | Cc1ncc(COP(=O)(N[C@@H](Cc2cn(C(=O)OC(C)(C)C)c3ccccc23)C(=O)OC(C)C)Oc2ccccc2)c(C=O)c1O (stereo partly drawn) [Compound 16xiii, Tert-butyl 3-((2S)-2-(((4-formyl-5-hydroxy-6-methylpyridin-3-yl)methoxy)(phenoxy)phosphorylamino)-3-isopropoxy-3-oxopropyl)-1H-indole-1-carboxylate] | 0.3 µM | 7.9% | –
18 | Cc1ncc(COP(=O)(N[C@@H](C)C(=O)Oc2ccc3ccccc3c2)Oc2ccccc2)c(C=O)c1O (stereo partly drawn) [Compound 16xiv, (2S)-Naphthalen-2-yl 2-(((4-formyl-5-hydroxy-6-methylpyridin-3-yl)methoxy)(phenoxy)phosphorylamino)propanoate] | – | – | unstable in DMSO
19 | Cc1ncc(COP(=O)(NCC(=O)OC(C)C)Oc2ccccc2)c(C=O)c1O (stereo not drawn) [Compound 16xv, Isopropyl 2-(((4-formyl-5-hydroxy-6-methylpyridin-3-yl)methoxy)(phenoxy)phosphorylamino)acetate] | – | – | unstable in DMSO
20 | [2H]c1c([2H])c([2H])c(OP(=O)(N[C@@H](C)C(=O)OC(C)C)OCc2cnc(C)c(O)c2C=O)c([2H])c1[2H] (stereo partly drawn) [Compound 16xx] | 1.4 µM | 38.9% | –
21 | [2H]C([2H])([2H])C([2H])(OC(=O)[C@H](C)NP(=O)(OCc1cnc(C)c(O)c1C=O)Oc1ccccc1)C([2H])([2H])[2H] (stereo partly drawn) [Compound 16xxi] | 0.3 µM | 17.6% | –
22 | [2H]C([2H])([2H])C(OC(=O)[C@H](C)NP(=O)(OCc1cnc(C)c(O)c1C=O)Oc1ccccc1)C([2H])([2H])[2H] (stereo partly drawn) [Compound 16xxii] | 6.3 µM | 153.7% | –
23 | Cc1ccc(OC(=O)[C@H](C)NP(=O)(OCc2cnc(C)c(O)c2C=O)Oc2ccccc2)cc1 (stereo partly drawn) [Compound 16xxiii, (2S)-p-Tolyl 2-(((4-formyl-5-hydroxy-6-methylpyridin-3-yl)methoxy)(phenoxy)phosphorylamino)propanoate] | 2 µM | 74.1% | –
24 | Cc1ncc(COP(=O)(N[C@@H](C)C(=O)OC2CCCC2)Oc2ccccc2)c(C=O)c1O (stereo partly drawn) [Compound 16xxiv, (2S)-Cyclopentyl 2-(((4-formyl-5-hydroxy-6-methylpyridin-3-yl)methoxy)(phenoxy)phosphorylamino)propanoate] | 2.2 µM | 129.4% | –
25 | Cc1ncc(COP(=O)(N[C@@H](Cc2ccc(OCc3ccccc3)cc2)C(=O)OC(C)C)Oc2ccccc2)c(C=O)c1O (stereo partly drawn) [Compound 16xxix, (2S)-Isopropyl 3-(4-(benzyloxy)phenyl)-2-(((4-formyl-5-hydroxy-6-methylpyridin-3-yl)methoxy)(phenoxy)phosphorylamino)propanoate] | 2.4 µM | 58.5% | –
26 | [2H]C([2H])(OP(=O)(N[C@@H](C)C(=O)OC(C)C)Oc1ccccc1)c1cnc(C)c(O)c1C=O (stereo partly drawn) [Compound 16xxvii] | 2 µM | 69.0% | –
27 | Cc1ncc(COP(=O)(N[C@H](C(=O)OC(C)C)C2CCCC2)Oc2ccccc2)c(C=O)c1O (stereo partly drawn) [Compound 16xxviii, (2S)-Isopropyl 2-cyclopentyl-2-(((4-formyl-5-hydroxy-6-methylpyridin-3-yl)methoxy)(phenoxy)phosphorylamino)acetate] | 0.4 µM | 9.8% | –
28 | Cc1ncc(COP(=O)(N[C@@H](Cc2ccc(O)cc2)C(=O)OC(C)C)Oc2ccccc2)c(C=O)c1O (stereo partly drawn) [Compound 16xxx, (2S)-Isopropyl 2-(((4-formyl-5-hydroxy-6-methylpyridin-3-yl)methoxy)(phenoxy)phosphorylamino)-3-(4-hydroxyphenyl)propanoate] | 2.2 µM | 75.9% | –
29 | Cc1ncc(COP(=O)(N[C@@H](C)C(=O)OC2CCN(C)CC2)Oc2ccccc2)c(C=O)c1O (stereo partly drawn) [Compound 16xxxi, (2S)-1-Methylpiperidin-4-yl 2-(((4-formyl-5-hydroxy-6-methylpyridin-3-yl)methoxy)(phenoxy)phosphorylamino)propanoate] | 0.4 µM | 13.8% | –
30 | COCCOC(=O)[C@H](C)NP(=O)(OCc1cnc(C)c(O)c1C=O)Oc1ccccc1 (stereo partly drawn) [Compound 16xxxii, (2S)-2-Methoxyethyl 2-(((4-formyl-5-hydroxy-6-methylpyridin-3-yl)methoxy)(phenoxy)phosphorylamino)propanoate] | 4.9 µM | 144.1% | –
31 | COC(=O)[C@@H]1CCCN1P(=O)(OCc1cnc(C)c(O)c1C=O)Oc1ccccc1 (stereo partly drawn) [Compound 16xxxiii, (2S)-Methyl 1-(((4-formyl-5-hydroxy-6-methylpyridin-3-yl)methoxy)(phenoxy)phosphoryl)pyrrolidine-2-carboxylate] | 0.4 µM | 11.8% | –
